US20250163072A1, “MACROCYCLIC COMPOUNDS FOR THE TREATMENT OF CANCER” (Hoffmann-La Roche Inc., priority 2021, published 2025)

What was measured:
[1] = GSH reaction rates (inherent GSH reactivity); format: in vitro ADME; conditions: 1 μM compound, 5 mM GSH, 37° C.
Outline: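 Compounds at 1 μM were incubated at 37° C with or without 5 mM GSH in 100 mM potassium phosphate pH 7.4 for 0-6 h. Samples were quenched with acetonitrile/N-ethylmaleimide and the remaining compound quantified by LC-MS/MS to derive T1/2.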

KRAS G12C-BRAF complex = KRAS G12C-BRAF complex (Homo sapiens (Human), UniProt P01116+P62937, G12C); test: KRAS G12C-BRAF NanoBit assay; format: cell-based; conditions: HEK293 cells, SmBit-KRAS G12C and BRAF RBD-LgBit, 3 hours incubation
Protocol: This assay is to measure the ability of tested compounds in disruption of the KRAS G12C-BRAF complex at the cellular level, we established the NanoBit cellular assay in mammalian HEK293 (ATCC) cells. HEK293 cells were grown and maintained using DMEM medium (Thermo Fisher Scientific) with 10% fetal bovine serum and 1% penicillin/streptomycin. Both KRAS G12C and BRAF RBD were cloned into the NanoBit vectors ([…] vectors system, Promega) with the orientations SmBit-KRAS G12C and BRAF RBD-LgBit, respectively, and co-transfected into HEK293 cells. Cells were then selected with 100 μg/mL Hygromycin B (10687010, Thermo Fisher) and Blasticidin (5 μg/mL) for 4 weeks to get the stable cell pool. On the day of the assay, 75 nL of compound solution was presented in a 384-well assay plate as a 16-point 3-fold dilution starting from a final concentration of 30 μM in DMSO. Then cells were seeded at 10,000 cells/25 μL/well in a 384-well plate. After 3 hours of incubation, 6 μL of volume of Nano-Glo® Live Cell Substrate (Promega) was added into each well. Monitor luminescence using ultra384 model in Envision at 20 minutes. Compounds that facilitate disruption of the KRAS G12C-BRAF RBD complex were identified as those eliciting a decrease of luminescence relative to DMSO control wells.

[2] = target: KRAS G12D binding to BRAF (Homo sapiens (Human), UniProt P01116+P62937, G12D); test: KRAS-BRAF with CYPA (50 nM) interaction assay (TR-FRET), G12D; conditions: GMPPNP loaded 6His-KRAS, GST-BRAF RBD
Outline: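 Buffer 25 mM HEPES pH 7.4, 100 mM NaCl, 5 mM MgCl2, 10 μM GMPPNP, 0.1% BSA; final 50 nM tagless CYPA, 6.25 nM GMPPNP-loaded 6His-KRAS mutant, 1 nM GST-BRAF RBD. Compounds 16-point 3-fold series from 10 μM, 3 h; anti-6His-XL665/anti-GST-Tb added, 1.5 h; 665/615 nm ratio decrease versus DMSO.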

AGS cells = test: Cell viability assay, AGS; format: cell-based, human; conditions: Homo sapiens, 72 hours, Cell Counting Kit-8, read-out: G12D IC50
Outline: (§1)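 Cells were plated at 5,000 (NCI-H358) or 2,000 (AGS, SW620) per well and incubated overnight. They were then treated with compound in 0.5% DMSO for 72 h. Viability was read with CCK-8 as OD450 minus OD650 after 2 h, and IC50 came from a 4-parameter sigmoidal fit.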

SW620 cells = test: Cell viability assay, SW620; format: cell-based, human; conditions: Homo sapiens, SW-620, SW620, 72 hours, Cell Counting Kit-8, read-out: G12V IC50
Outline: as §1

Chain of KRAS G12C-BRAF complex (P01116-2 other isoform, or with tags, fused parts or gaps G12C): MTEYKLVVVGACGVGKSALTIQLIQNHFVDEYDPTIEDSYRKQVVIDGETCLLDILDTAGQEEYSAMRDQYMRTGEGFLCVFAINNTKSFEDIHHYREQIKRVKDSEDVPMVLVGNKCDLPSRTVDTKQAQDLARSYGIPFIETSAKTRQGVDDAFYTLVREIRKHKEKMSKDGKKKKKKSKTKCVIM
Chain of KRAS G12C-BRAF complex (P62937 whole entry): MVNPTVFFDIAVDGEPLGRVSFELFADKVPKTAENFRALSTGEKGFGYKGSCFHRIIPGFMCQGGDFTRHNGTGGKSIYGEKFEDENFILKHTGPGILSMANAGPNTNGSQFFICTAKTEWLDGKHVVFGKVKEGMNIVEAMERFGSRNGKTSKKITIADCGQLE
Chain of KRAS G12D binding to BRAF (P01116-2 other isoform, or with tags, fused parts or gaps G12D): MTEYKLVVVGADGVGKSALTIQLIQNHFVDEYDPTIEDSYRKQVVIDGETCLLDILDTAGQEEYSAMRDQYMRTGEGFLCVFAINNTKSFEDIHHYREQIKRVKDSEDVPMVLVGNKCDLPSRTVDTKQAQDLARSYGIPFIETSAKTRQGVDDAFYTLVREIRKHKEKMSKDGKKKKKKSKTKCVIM
Chain of KRAS G12D binding to BRAF (P62937 whole entry): as the sequence (P62937 whole entry) above

CO[C@@H](C)c1ncc(N2CCOCC2)cc1-c1c2c3cc(ccc3n1CC(F)(F)F)-c1csc(n1)C[C@H](NC(=O)[C@H](C(C)C)N(C)C(=O)[C@H]1CCN(C(=O)[C@H](F)Cl)C1)C(=O)N1CCC[C@H](N1)C(=O)OCC(C)(C)C2 (atropisomer, axis not shown; (M)) [Example 25, (3S)-1-[(2R)-2-chloro-2-fluoro-acetyl]-N-[(1S)-1-[[(7S,13S)-(20M)-20-[2-[(1S)-1-methoxyethyl]-5-morpholino-3-pyridyl]-17,17-dimethyl-8,14-dioxo-21-(2,2,2-trifluoroethyl)-15-oxa-4-thia-9,21,27,28-tetrazapentacyclo[17.5.2.12,5.19,13.022,26]octacosa-1(25),2,5(28),19,22(26),23-hexaen-7-yl]carbamoyl]-2-methyl-propyl]-N-methyl-pyrrolidine-3-carboxamide]
Remaining at 6 hr in GSH (%) ([1]; pH 7.4, 6 hr): 100% | T1/2(hour) in GSH ([1]; potassium phosphate buffer pH 7.4): stable (If % depletion after 6 hour incubation is less than 20%, compounds were reported as stable) | IC50 (KRAS G12C-BRAF complex): 20 nM | IC50 [2]: > 10000 nM | IC50 (AGS cells): 94 nM | IC50 (SW620 cells): 6 nM
